Reference: ChEMBL document CHEMBL4002601, “A triple exon-skipping luciferase reporter assay identifies a new CLK inhibitor pharmacophore” (Bioorg Med Chem Lett, 2017)

Key:
[1] = biological target: Serine/threonine-protein kinase PLK1 (Homo sapiens) (UniProt P53350); experiment: Inhibition of human Plk1 using casein as substrate in presence of [gamma-33P]ATP at 1 uM after 40 mins by scintillation counter method
[2] = biological target: Tyrosine-protein kinase JAK2 (Homo sapiens) (UniProt O60674); experiment: Inhibition of human JAK2 using KTFCGTPEYLAPEVRREPRILSEEEQEMFRDFDYIADWC as substrate in presence of [gamma-33P]ATP at 1 uM after 40 mins by scintillation counter method
[3] = biological target: PI3-kinase p110-alpha/p85-alpha (Homo sapiens) (UniProt P27986+P42336); experiment: Inhibition of human PI3K p110alpha/pI3K p85alpha at 1 uM using PIP2 as substrate in presence of biotinylated PIP3 and ATP and measured after 30 mins by HTRF method; format: protein-complex assay
[4] = biological target: PI3-kinase p110-delta/p85-alpha (Homo sapiens) (UniProt P27986+O00329); experiment: Inhibition of human PI3K p110delta/pI3K p85alpha at 1 uM using PIP2 as substrate in presence of biotinylated PIP3 and ATP and measured after 30 mins by HTRF method; format: protein-complex assay
[5] = biological target: Dual specificity protein kinase CLK1 (Homo sapiens, UniProt P49759); experiment: Inhibition of CLK mediated SF3B1 activation in human SK-MEL-2 cells assessed as MDM2-pre mRNA exon skipping at 10 uM after 4 hrs by luciferase reporter gene assay relative to control; format: cell-based
[6] = biological target: Receptor-type tyrosine-protein kinase FLT3 (Homo sapiens) (UniProt P36888); experiment: Inhibition of human Flt3 using EAIYAAPFAKKK as substrate in presence of [gamma-33P]ATP at 1 uM after 40 mins by scintillation counter method
[7] = biological target: Mitogen-activated protein kinase 9 (Homo sapiens) (UniProt P45984); experiment: Inhibition of human JNK2alpha2 using ATF2 as substrate in presence of [gamma-33P]ATP at 1 uM after 40 mins by scintillation counter method
[8] = biological target: ALK tyrosine kinase receptor (Homo sapiens) (UniProt Q9UM73); experiment: Inhibition of human ALK using casein as substrate in presence of [gamma-33P]ATP at 1 uM after 40 mins by scintillation counter method
[9] = biological target: Epidermal growth factor receptor (Homo sapiens) (UniProt P00533); experiment: Inhibition of human EGFR using poly(Glu, Tyr) 4:1 as substrate in presence of [gamma-33P]ATP at 1 uM after 40 mins by scintillation counter method
[10] = biological target: SRSF protein kinase 1 (Homo sapiens) (UniProt Q96SB4); experiment: Inhibition of human SRPK1 using RSRSRSRSRSRSRSR as substrate in presence of [gamma-33P]ATP at 1 uM after 40 mins by scintillation counter method
[11] = biological target: Proto-oncogene tyrosine-protein kinase Src (Homo sapiens) (UniProt P12931); experiment: Inhibition of human Src (1 to 530 residues) using GGEEEEYFELVKKKK as substrate in presence of [gamma-33P]ATP at 1 uM after 40 mins by scintillation counter method
[12] = biological target: Dual specificity mitogen-activated protein kinase kinase 1 (Homo sapiens) (UniProt Q02750); experiment: Inhibition of human MEK1 using inactive MAPK2 as substrate in presence of [gamma-33P]ATP at 1 uM after 40 mins by scintillation counter method
[13] = biological target: Receptor tyrosine-protein kinase erbB-2 (Homo sapiens) (UniProt P04626); experiment: Inhibition of human ErbB2 using poly(Glu, Tyr) as substrate in presence of [gamma-33P]ATP at 1 uM after 40 mins by scintillation counter method
[14] = biological target: Dual specificity tyrosine-phosphorylation-regulated kinase 1A (Homo sapiens) (UniProt Q13627); experiment: Inhibition of human DYRK1A using RRRFRPASPLRGPPK as substrate in presence of [gamma-33P]ATP at 1 uM after 40 mins by scintillation counter method
[15] = biological target: Mitogen-activated protein kinase 8 (Homo sapiens) (UniProt P45983); experiment: Inhibition of human JNK1alpha1 using ATF2 as substrate in presence of [gamma-33P]ATP at 1 uM after 40 mins by scintillation counter method
[16] = biological target: T1, Tyrosine-protein kinase JAK3 (Homo sapiens) (UniProt P52333); experiment: Inhibition of human JAK3 using GGEEEEYFELVKKKK as substrate in presence of [gamma-33P]ATP at 1 uM after 40 mins by scintillation counter method
T1 sequence (whole entry): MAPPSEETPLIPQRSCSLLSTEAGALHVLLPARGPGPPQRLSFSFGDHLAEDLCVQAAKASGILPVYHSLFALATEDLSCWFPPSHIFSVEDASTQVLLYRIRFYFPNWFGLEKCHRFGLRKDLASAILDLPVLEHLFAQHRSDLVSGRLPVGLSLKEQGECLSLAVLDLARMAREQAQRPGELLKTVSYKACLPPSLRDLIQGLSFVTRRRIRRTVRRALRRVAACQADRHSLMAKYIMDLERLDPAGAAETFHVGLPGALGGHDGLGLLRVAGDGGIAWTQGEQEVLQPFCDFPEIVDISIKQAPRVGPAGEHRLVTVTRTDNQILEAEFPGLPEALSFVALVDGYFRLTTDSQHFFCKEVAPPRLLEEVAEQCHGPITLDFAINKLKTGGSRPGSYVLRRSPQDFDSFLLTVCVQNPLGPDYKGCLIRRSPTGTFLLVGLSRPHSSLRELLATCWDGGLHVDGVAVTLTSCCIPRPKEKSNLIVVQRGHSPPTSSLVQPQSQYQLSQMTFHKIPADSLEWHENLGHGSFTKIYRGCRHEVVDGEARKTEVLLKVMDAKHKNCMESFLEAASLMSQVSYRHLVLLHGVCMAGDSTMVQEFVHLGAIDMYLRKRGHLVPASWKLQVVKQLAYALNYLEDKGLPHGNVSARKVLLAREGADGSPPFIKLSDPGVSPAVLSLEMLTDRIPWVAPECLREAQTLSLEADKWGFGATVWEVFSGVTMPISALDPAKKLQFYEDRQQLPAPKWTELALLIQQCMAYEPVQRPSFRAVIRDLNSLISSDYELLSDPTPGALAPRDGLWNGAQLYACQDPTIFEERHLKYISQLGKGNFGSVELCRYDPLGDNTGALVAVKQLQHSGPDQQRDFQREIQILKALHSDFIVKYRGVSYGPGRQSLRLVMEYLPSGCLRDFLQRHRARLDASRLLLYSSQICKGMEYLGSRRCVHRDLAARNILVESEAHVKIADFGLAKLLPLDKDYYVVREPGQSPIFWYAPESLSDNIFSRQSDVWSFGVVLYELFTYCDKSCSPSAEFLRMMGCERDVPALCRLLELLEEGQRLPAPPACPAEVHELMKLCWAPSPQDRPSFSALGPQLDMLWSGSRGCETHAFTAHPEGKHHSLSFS

Dual specificity protein kinase CLK1, sequence (P49759 whole entry, looked up): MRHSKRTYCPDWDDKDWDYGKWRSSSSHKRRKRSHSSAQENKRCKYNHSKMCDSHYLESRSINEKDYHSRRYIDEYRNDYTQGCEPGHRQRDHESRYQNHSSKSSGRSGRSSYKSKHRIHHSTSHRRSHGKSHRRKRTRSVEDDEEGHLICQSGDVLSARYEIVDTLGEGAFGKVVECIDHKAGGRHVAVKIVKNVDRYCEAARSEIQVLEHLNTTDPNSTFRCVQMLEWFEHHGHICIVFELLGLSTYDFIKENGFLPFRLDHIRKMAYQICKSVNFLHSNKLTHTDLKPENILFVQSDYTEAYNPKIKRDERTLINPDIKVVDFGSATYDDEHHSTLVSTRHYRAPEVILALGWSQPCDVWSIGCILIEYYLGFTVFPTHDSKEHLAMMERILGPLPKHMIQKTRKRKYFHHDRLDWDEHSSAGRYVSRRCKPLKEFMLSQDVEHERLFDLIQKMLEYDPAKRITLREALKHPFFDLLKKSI
Epidermal growth factor receptor (Homo sapiens), sequence (P00533 whole entry): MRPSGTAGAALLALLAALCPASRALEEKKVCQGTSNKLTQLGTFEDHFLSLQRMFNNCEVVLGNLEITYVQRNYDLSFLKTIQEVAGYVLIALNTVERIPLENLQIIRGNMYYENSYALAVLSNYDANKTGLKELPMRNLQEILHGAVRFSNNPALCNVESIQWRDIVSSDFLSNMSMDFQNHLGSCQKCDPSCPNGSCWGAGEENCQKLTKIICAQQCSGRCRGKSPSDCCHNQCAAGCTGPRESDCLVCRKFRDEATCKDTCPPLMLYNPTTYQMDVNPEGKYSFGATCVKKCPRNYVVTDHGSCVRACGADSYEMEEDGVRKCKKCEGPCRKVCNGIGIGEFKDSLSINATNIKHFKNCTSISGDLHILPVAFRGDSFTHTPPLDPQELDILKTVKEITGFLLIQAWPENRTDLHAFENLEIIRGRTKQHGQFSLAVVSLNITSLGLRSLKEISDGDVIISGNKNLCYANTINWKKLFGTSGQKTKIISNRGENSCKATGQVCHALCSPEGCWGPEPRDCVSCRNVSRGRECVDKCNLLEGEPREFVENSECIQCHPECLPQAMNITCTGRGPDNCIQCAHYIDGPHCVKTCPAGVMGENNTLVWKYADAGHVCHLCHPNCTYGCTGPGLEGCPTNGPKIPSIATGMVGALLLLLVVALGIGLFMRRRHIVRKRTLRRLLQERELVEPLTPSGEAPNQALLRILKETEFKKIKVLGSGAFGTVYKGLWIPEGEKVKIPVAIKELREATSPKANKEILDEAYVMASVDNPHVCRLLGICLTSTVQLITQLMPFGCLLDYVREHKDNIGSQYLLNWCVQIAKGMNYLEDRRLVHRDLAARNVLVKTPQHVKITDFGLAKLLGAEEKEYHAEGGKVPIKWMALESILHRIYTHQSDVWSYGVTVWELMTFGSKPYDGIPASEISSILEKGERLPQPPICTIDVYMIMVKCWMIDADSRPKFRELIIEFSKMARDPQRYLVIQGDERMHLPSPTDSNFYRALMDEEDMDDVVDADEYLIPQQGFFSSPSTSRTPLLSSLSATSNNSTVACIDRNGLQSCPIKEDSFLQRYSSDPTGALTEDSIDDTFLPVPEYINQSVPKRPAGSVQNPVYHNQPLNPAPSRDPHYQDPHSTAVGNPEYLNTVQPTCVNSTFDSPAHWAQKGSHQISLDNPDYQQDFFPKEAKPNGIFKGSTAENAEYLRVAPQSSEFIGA
Receptor tyrosine-protein kinase erbB-2 (Homo sapiens), sequence (P04626 whole entry): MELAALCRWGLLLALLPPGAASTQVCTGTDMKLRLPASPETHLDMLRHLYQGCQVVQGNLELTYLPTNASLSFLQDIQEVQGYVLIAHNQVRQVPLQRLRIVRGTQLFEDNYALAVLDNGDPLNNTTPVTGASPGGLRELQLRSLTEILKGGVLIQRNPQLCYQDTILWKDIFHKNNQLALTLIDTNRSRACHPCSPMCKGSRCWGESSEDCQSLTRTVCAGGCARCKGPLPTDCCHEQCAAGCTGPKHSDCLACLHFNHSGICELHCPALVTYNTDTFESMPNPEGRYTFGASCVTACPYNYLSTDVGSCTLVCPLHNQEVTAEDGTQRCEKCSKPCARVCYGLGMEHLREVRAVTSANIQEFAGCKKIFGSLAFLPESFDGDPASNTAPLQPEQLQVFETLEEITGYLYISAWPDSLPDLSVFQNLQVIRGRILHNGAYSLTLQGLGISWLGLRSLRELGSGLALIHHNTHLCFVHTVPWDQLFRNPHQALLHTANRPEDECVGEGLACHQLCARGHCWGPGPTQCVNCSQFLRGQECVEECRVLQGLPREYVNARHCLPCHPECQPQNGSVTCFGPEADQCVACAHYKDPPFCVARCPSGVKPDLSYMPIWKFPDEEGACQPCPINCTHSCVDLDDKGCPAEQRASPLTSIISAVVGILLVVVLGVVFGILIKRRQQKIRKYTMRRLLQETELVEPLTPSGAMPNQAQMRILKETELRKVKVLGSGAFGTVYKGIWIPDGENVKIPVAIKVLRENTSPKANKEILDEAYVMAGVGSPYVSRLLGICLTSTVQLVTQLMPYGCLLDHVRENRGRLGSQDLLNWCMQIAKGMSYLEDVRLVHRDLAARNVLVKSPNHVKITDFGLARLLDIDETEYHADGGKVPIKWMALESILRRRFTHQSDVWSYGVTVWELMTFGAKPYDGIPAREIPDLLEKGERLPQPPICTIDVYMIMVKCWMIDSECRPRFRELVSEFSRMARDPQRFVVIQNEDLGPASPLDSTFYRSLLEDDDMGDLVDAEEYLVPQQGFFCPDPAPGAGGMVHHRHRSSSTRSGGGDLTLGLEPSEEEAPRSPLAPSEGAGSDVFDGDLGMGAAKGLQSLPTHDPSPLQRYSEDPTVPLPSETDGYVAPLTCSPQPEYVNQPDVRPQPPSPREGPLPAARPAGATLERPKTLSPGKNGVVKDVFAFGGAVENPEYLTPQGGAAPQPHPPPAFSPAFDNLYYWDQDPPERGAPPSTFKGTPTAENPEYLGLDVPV
Proto-oncogene tyrosine-protein kinase Src (Homo sapiens), sequence (P12931 2-536 limits assumed): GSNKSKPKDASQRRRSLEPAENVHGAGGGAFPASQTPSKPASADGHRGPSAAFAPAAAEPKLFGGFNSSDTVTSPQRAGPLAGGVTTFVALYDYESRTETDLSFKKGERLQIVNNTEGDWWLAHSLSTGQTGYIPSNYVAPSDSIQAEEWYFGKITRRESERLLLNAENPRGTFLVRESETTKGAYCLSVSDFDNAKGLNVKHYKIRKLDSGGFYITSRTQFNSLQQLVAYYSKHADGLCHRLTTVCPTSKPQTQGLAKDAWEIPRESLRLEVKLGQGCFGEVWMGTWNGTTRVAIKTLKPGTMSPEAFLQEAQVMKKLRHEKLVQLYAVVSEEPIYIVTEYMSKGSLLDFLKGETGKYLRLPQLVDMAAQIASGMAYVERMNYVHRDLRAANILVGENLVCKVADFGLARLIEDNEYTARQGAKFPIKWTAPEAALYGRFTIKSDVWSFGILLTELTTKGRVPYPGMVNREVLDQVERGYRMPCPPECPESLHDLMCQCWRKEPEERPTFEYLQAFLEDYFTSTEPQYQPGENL
Serine/threonine-protein kinase PLK1 (Homo sapiens), sequence (P53350 whole entry): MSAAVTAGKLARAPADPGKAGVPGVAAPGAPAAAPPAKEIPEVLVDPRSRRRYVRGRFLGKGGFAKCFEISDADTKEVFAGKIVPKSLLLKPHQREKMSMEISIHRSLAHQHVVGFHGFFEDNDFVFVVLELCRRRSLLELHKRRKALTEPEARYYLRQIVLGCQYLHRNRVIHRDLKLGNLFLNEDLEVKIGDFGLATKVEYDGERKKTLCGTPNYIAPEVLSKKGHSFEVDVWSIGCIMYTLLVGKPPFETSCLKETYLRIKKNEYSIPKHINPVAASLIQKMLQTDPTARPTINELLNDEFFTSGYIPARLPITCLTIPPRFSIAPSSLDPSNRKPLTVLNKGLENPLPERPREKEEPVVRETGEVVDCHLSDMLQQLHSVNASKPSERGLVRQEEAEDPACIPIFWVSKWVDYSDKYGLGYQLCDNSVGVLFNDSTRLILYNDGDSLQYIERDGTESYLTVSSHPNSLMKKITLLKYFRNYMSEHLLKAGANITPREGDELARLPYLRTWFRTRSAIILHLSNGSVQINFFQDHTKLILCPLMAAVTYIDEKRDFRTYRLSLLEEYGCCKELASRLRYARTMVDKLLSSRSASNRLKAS
Dual specificity mitogen-activated protein kinase kinase 1 (Homo sapiens), sequence (Q02750 whole entry): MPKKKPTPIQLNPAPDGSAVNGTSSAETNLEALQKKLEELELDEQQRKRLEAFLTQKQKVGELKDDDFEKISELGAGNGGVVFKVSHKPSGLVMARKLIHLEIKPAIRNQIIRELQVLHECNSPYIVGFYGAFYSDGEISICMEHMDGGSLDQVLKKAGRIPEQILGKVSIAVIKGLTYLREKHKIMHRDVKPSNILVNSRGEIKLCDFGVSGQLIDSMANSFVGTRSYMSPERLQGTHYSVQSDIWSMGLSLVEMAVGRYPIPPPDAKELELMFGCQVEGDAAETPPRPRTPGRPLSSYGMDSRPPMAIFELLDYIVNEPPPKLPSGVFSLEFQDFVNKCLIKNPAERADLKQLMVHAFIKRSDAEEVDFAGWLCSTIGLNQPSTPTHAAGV
Mitogen-activated protein kinase 8 (Homo sapiens), sequence (P45983 whole entry): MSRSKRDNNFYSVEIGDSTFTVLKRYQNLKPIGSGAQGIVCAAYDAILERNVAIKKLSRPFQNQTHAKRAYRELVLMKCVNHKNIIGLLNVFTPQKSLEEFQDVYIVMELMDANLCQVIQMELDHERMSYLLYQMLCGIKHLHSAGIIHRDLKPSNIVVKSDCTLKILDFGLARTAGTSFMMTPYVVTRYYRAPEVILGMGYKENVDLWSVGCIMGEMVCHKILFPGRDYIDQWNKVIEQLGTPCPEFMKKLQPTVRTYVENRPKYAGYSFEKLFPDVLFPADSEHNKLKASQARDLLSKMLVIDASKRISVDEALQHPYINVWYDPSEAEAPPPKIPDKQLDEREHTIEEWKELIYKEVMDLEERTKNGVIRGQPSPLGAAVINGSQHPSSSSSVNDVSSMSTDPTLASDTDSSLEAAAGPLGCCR

Structure (SMILES) | inhibition [1] | inhibition [2] | inhibition [3] | inhibition [4] | fold change (FC) [5] | inhibition [6] | inhibition [7] | inhibition [8] | inhibition [9] | inhibition [10] | inhibition [11] | inhibition [12] | inhibition [13] | inhibition [14] | inhibition [15] | inhibition [16]
CC(C)n1cnc2c(Nc3cccc(Cl)c3)nc(N[C@H]3CCCC[C@@H]3N)nc21 | 49% | -6% | 2% | 2% | > 3 | 19% | 1% | 7% | -6% | -1% | 22% | 10% | 2% | 5% | 3% | 0%
CC(C)n1cnc2c(Nc3cc(N)cc(Cl)c3)nc(N[C@@H]3CCCC[C@@H]3N)nc21 (racemic) | 60% | 8% | 1% | 0% | > 3 | 93% | -6% | 10% | -1% | 21% | 78% | 6% | 3% | 19% | -6% | 0%
CC(C)n1cnc2c(Nc3cccc(Cl)c3)nc(N[C@@H]3CCCC[C@@H]3N)nc21 | 9% | 2% | 5% | 3% | > 3 | 90% | 4% | -2% | 3% | 48% | 69% | 8% | 0% | 28% | -1% | 4%
